Experimental data as given in patent US20220386606A1, “SPECIFICALLY SUBSTITUTED 3-PHENYL-5-SPIROCYCLOPENTYL-3-PYRROLIN-2-ONES AND THEIR USE AS HERBICIDES” (Bayer Aktiengesellschaft, priority 2019, published 2022).

Tests used:
[1] = tested on: DIGSA; assay: Pre-emergence herbicidal action against DIGSA; format: in vivo, Digitaria sanguinalis; conditions: 320 g/ha, scored visually after 3 weeks vs untreated controls
Text: (§1) Seeds of monocotyledonous and dicotyledonous weed plants and crop plants are laid out in sandy loam soil in wood-fiber pots and covered with soil. The compounds of the invention, formulated in the form of wettable powders (WP) or as emulsion concentrates (EC), are then applied to the surface of the covering soil as aqueous suspension or emulsion at a water application rate equating to 600 to 800 L/ha with addition of 0.2% wetting agent.
(§2) After the treatment, the pots are placed in a greenhouse and kept under good growth conditions for the trial plants. The damage to the test plants is scored visually after a test period of 3 weeks by comparison with untreated controls (herbicidal activity in percent (%): 100% activity=the plants have died, 0% activity=like control plants).

[2] = tested on: LOLRI; assay: Pre-emergence herbicidal action against LOLRI (Table 8, titled post-emergence at 320 g/ha); format: in vivo, Lolium rigidum; conditions: table stands in the pre-emergence section
Text: as §1, §2

[3] = tested on: ECHCG; assay: Post-emergence herbicidal action against ECHCG; format: in vivo, Echinochloa crus-galli; conditions: 80 g/ha, visual assessment about 3 weeks after treatment vs untreated controls
Protocol: (§3) Seeds of monocotyledonous and dicotyledonous weed and crop plants are laid out in sandy loam soil in wood-fiber pots, covered with soil and cultivated in a greenhouse under good growth conditions. 2 to 3 weeks after sowing, the test plants are treated at the one-leaf stage. The compounds of the invention, formulated in the form of wettable powders (WP) or as emulsion concentrates (EC), are then sprayed onto the green parts of the plants as aqueous suspension or emulsion at a water application rate equating to 600 to 800 l/ha with addition of 0.2% wetting agent. After the test plants have been left to stand in the greenhouse under optimal growth conditions for about 3 weeks, the action of the preparations is assessed visually in comparison to untreated controls (herbicidal action in percent (%): 100% activity=the plants have died, 0% activity=like control plants).

[4] = tested on: LOLRI; assay: Post-emergence herbicidal action against LOLRI; format: in vivo, Lolium rigidum; conditions: 80 g/ha, visual assessment about 3 weeks after treatment vs untreated controls
Protocol: as §3

[5] = tested on: SETVI; assay: Post-emergence herbicidal action against SETVI; format: in vivo, Setaria viridis; conditions: 80 g/ha, visual assessment about 3 weeks after treatment vs untreated controls
Protocol: as §3

[6] = tested on: DIGSA; assay: Post-emergence herbicidal action against DIGSA; format: in vivo, Digitaria sanguinalis; conditions: 80 g/ha, visual assessment about 3 weeks after treatment vs untreated controls
Protocol: as §3

[7] = tested on: ALOMY; assay: Post-emergence herbicidal action against ALOMY; format: in vivo, Alopecurus myosuroides; conditions: 80 g/ha, visual assessment after about 3 weeks
Protocol: as §3

[8] = tested on: AVEFA; assay: Post-emergence herbicidal action against AVEFA; format: in vivo, Avena fatua; conditions: 80 g/ha, visual assessment after about 3 weeks
Protocol: as §3

[9] = tested on: SETVI; assay: Pre-emergence herbicidal action against SETVI; format: in vivo, Setaria viridis; conditions: 320 g/ha, scored visually after 3 weeks vs untreated controls
Text: as §1, §2

[10] = tested on: ALOMY; assay: Pre-emergence herbicidal action against ALOMY; format: in vivo, Alopecurus myosuroides; conditions: 320 g/ha, scored visually after 3 weeks vs untreated controls
Text: as §1, §2

[11] = tested on: ECHCG; assay: Pre-emergence herbicidal action against ECHCG; format: in vivo, Echinochloa crus-galli; conditions: 320 g/ha, scored visually after 3 weeks vs untreated controls
Text: as §1, §2

[12] = tested on: AVEFA; assay: Pre-emergence herbicidal action against AVEFA; format: in vivo, Avena fatua; conditions: 320 g/ha, scored visually after 3 weeks vs untreated controls
Text: as §1, §2

| Structure (SMILES) | Pre-emergence action against DIGSA in % [1] | Pre-emergence herbicidal action against LOLRI in % [2] | Post-emergence action against ECHCG in % [3] | Post-emergence action against LOLRI in % [4] | Post-emergence action against SETVI in % [5] | Post-emergence action against DIGSA in % [6] | Post-emergence action against ALOMY in % [7] | Post-emergence action against AVEFA in % [8] | Pre-emergence action against SETVI in % [9] | Pre-emergence action against ALOMY in % [10] | Pre-emergence action against ECHCG in % [11] | Pre-emergence action against AVEFA in % [12] |
| --- | --- | --- | --- | --- | --- | --- | --- | --- | --- | --- | --- | --- |
| CC#Cc1cc(C)c(C2=C(O)C3(CCC(COC)C3)NC2=O)c(F)c1 (centres unmarked) [Example I-34] | 100% | 100% | 100% | 100% | 100% | 100% | 100% | 90% | 100% | – | – | – |
| CC#Cc1cc(C)c(C2=C(O)C3(CCC(COCC)C3)NC2=O)c(F)c1 (centres unmarked) [Example I-37] | 90% | 100% | 100% | 90% | 100% | 100% | 100% | 100% | 100% | 80% | 100% | – |
| C=CCOCC1CCC2(C1)NC(=O)C(c1c(F)cc(C#CC)cc1OC)=C2O (centres unmarked) [Example I-54] | 100% | 100% | 100% | 90% | 100% | – | 100% | – | 100% | 100% | 100% | 80% |
| CC#Cc1cc(F)c(C2=C(O)C3(CCC(COCCC)C3)NC2=O)c(OC)c1 (centres unmarked) [Example I-56] | 100% | 100% | 100% | 80% | 100% | 90% | 90% | 90% | 100% | 80% | 100% | – |
| CC#Cc1cc(F)c(C2=C(O)C3(CCC(COCCC)C3)NC2=O)c(OC)c1 (centres unmarked) [Example I-57] | 100% | 100% | 100% | 80% | 100% | 90% | – | – | 100% | 100% | 100% | – |
| CC#Cc1cc(Br)c(C2=C(OC(=O)C(C)C)C3(CCC(COC)C3)NC2=O)c(CC)c1 (centres unmarked) [Example P-45] | – | – | – | – | – | – | – | – | 80% | – | – | – |
| C=CCOCC1CCC2(C1)NC(=O)C(c1c(C)cc(C#CC)cc1OC)=C2OC(=O)OCC (centres unmarked) [Example P-68] | 100% | 100% | 100% | 90% | 100% | 90% | 100% | 90% | 100% | 100% | 100% | – |
| C=CCOCC1CCC2(C1)NC(=O)C(c1c(F)cc(C#CC)cc1OC)=C2OC(=O)OCC (centres unmarked) [Example P-78] | 100% | 100% | 100% | – | 100% | 90% | 100% | – | 100% | 100% | 100% | – |
